According to ChEMBL document CHEMBL5634137, “2,4-Diacetylphloroglucinol (DAPG) derivatives rapidly eradicate methicillin-resistant staphylococcus aureus without resistance development by disrupting membrane” (Eur J Med Chem, 2023):
In brackets after ≈: the same amount, converted by molar mass.

Tests used:
[1] = system: Staphylococcus aureus; test: Antibacterial activity against methicillin-resistant Staphylococcus aureus ATCC 4330 assessed as inhibition of bacterial growth incubated for 24 hrs by broth dilution method; type: functional
[2] = system: Staphylococcus aureus; test: Antibacterial activity against methicillin-resistant Staphylococcus aureus ATCC 3392 assessed as inhibition of bacterial growth incubated for 24 hrs by broth dilution method; type: functional
[3] = system: Staphylococcus aureus; test: Selectivity index, ratio of MBC for bactericidal against methicillin-resistant Staphylococcus aureus ATCC 4330 to MIC for antibacterial activity against methicillin-resistant Staphylococcus aureus ATCC 4330; type: functional
[4] = system: Escherichia coli; test: Antibacterial activity against Escherichia coli ATCC 11775 assessed as inhibition of bacterial growth incubated for 24 hrs by broth dilution method; type: functional
[5] = system: Staphylococcus aureus; test: Bactericidal against methicillin-resistant Staphylococcus aureus ATCC 4330 assessed as inhibition of bacterial growth incubated for 24 hrs by broth dilution method; type: functional
[6] = system: Staphylococcus aureus; test: Bactericidal activity against methicillin-resistant Staphylococcus aureus ATCC 3392 assessed as inhibition of bacterial growth incubated for 24 hrs by broth dilution method; type: functional
[7] = system: Klebsiella pneumoniae; test: Antibacterial activity against Klebsiella pneumoniae […] assessed as inhibition of bacterial growth incubated for 24 hrs by broth dilution method; type: functional
[8] = system: Staphylococcus aureus; test: Selectivity index, ratio of MBC for bactericidal against methicillin-resistant Staphylococcus aureus ATCC 3392 to MIC for antibacterial activity against methicillin-resistant Staphylococcus aureus ATCC 3392; type: functional
[9] = system: Staphylococcus aureus; test: Antibacterial activity against Methicillin-resistant Staphylococcus aureus USA300 assessed as inhibition of bacterial growth incubated for 24 hrs by broth dilution method; type: functional
[10] = system: Pseudomonas aeruginosa; test: Antibacterial activity against Pseudomonas aeruginosa […] assessed as inhibition of bacterial growth incubated for 24 hrs by broth dilution method; type: functional
[11] = Cytotoxicity against human L02 cells assessed as survival rate incubated for 24 hrs by MTT assay; type: toxicity, cell-based; parameters: concentration or dose not given beside the values; conditions: read-out: Survival
[12] = Cytotoxicity against mouse RAW264.7 cells assessed as survival rate incubated for 24 hrs by MTT assay; type: toxicity, cell-based; parameters: concentration or dose not given beside the values; conditions: read-out: Survival

Structure (SMILES) | MIC [1] [µg/mL] | MIC [2] [µg/mL] | Selectivity Index [3] | MIC [4] [µg/mL] | MBC [5] [µg/mL] | MBC [6] [µg/mL] | MIC [7] [µg/mL] | Selectivity Index [8] | MIC [9] [µg/mL] | MIC [10] [µg/mL] | viability at 24 h [11] [%] | viability at 24 h [12] [%]
CCCCCCCCCCCCCCCC(=O)c1c(O)cc(O)cc1O | > 64 | > 64 |  |  |  |  |  |  |  |  |  | 
CC(C)(C)CC(=O)c1c(O)cc(O)c(C(=O)CC(C)(C)C)c1O | 0.5 (≈ 1.55 µM) | 0.5 (≈ 1.55 µM) | 8 | > 64 | 4 (≈ 12.4 µM) | 4 (≈ 12.4 µM) | > 64 | 8 | 0.5 (≈ 1.55 µM) | > 64 |  | 
O=C(c1c(O)cc(O)c(C(=O)C2CCCCC2)c1O)C1CCCCC1 | 1 (≈ 2.89 µM) | 0.5 (≈ 1.44 µM) | 8 | > 64 | 8 (≈ 23.1 µM) | 2 (≈ 5.77 µM) | > 64 | 4 | 0.5 (≈ 1.44 µM) | > 64 |  | 
CCCC(=O)c1c(O)cc(O)cc1O | > 64 | > 64 |  |  |  |  |  |  |  |  |  | 
CCC(=O)c1c(O)cc(O)cc1O [FLOPROPIONE] | > 64 | > 64 |  |  |  |  |  |  |  |  |  | 
COc1cc(O)c(C(C)=O)c(OC)c1C(C)=O | > 64 | > 64 |  |  |  |  |  |  |  |  |  | 
CCCCC(=O)c1c(O)cc(O)c(C(C)=O)c1O | 4 (≈ 15.9 µM) | 8 (≈ 31.7 µM) |  |  |  |  |  |  |  |  |  | 
O=C(c1c(O)cc(O)cc1O)C1CCCC1 | 64 (≈ 288 µM) | 64 (≈ 288 µM) |  |  |  |  |  |  |  |  |  | 
O=Cc1c(O)cc(O)cc1O [PHLOROGLUCINALDEHYDE] | > 64 | > 64 |  |  |  |  |  |  |  |  |  | 
COc1cc(O)c(C(C)=O)c(O)c1C(C)=O | > 64 | > 64 |  |  |  |  |  |  |  |  |  | 
O=C(c1c(O)cc(O)c(C(=O)C2CCC2)c1O)C1CCC1 | 2 (≈ 6.89 µM) | 2 (≈ 6.89 µM) | 2 | 64 (≈ 220 µM) | 4 (≈ 13.8 µM) | 8 (≈ 27.6 µM) | > 64 | 4 | 1 (≈ 3.44 µM) | > 64 |  | 
CCCCCC(=O)c1c(O)cc(O)c(C(=O)CCCCC)c1O | 0.5 (≈ 1.55 µM) | 0.5 (≈ 1.55 µM) | 4 | > 64 | 2 (≈ 6.2 µM) | 2 (≈ 6.2 µM) | > 64 | 4 | 0.5 (≈ 1.55 µM) | > 64 |  | 
CCCCCCCC(=O)c1c(O)cc(O)c(C(=O)CCCCCCC)c1O | 1 (≈ 2.64 µM) | 2 (≈ 5.28 µM) | 1 | > 64 | 1 (≈ 2.64 µM) | 2 (≈ 5.28 µM) | > 64 | 1 | 2 (≈ 5.28 µM) | > 64 |  | 
CCCCC(=O)c1c(O)cc(O)c(C(=O)CCCC)c1O | 2 (≈ 6.79 µM) | 2 (≈ 6.79 µM) |  | 64 (≈ 217 µM) | 2 (≈ 6.79 µM) | 4 (≈ 13.6 µM) | > 64 |  | 0.5 (≈ 1.7 µM) | > 64 |  | 
CCCCCCCCCCCCCCCC(=O)c1c(O)cc(O)c(C(=O)CCCCCCCCCCCCCCC)c1O | > 64 | > 64 |  |  |  |  |  |  |  |  |  | 
CCCCC(=O)c1c(O)cc(O)c(C(=O)CC(C)(C)C)c1O | 0.5 (≈ 1.62 µM) | 0.5 (≈ 1.62 µM) | 8 | > 64 | 4 (≈ 13 µM) | 4 (≈ 13 µM) | > 64 |  | 0.5 (≈ 1.62 µM) | > 64 | 75 | 76
O=C(Cc1ccccc1)c1c(O)cc(O)c(C(=O)Cc2ccccc2)c1O | 0.5 (≈ 1.38 µM) | 1 (≈ 2.76 µM) |  | 64 (≈ 177 µM) | 8 (≈ 22.1 µM) | 8 (≈ 22.1 µM) | > 64 | 8 | 1 (≈ 2.76 µM) | > 64 |  | 
O=C(c1c(O)cc(O)cc1O)C1CC1 | 16 (≈ 82.4 µM) | 32 (≈ 165 µM) |  |  |  |  |  |  |  |  |  | 
O=C(Cc1ccccc1)c1c(O)cc(O)cc1O | 32 (≈ 131 µM) | > 64 |  |  |  |  |  |  |  |  |  | 
CCCCCCC(=O)c1c(O)cc(O)cc1O | 16 (≈ 67.1 µM) | 16 (≈ 67.1 µM) |  |  |  |  |  |  |  |  |  | 
CCCCCCCCCC(=O)c1c(O)cc(O)c(C(=O)CCCCCCCCC)c1O | 8 (≈ 18.4 µM) | 8 (≈ 18.4 µM) |  |  |  |  |  |  |  |  |  | 
O=C(c1c(O)cc(O)cc1O)C1CCCCC1 | 64 (≈ 271 µM) | > 64 |  |  |  |  |  |  |  |  |  | 
CCC(C)C(=O)c1c(O)cc(O)c(C(=O)C(C)CC)c1O (stereo not given) | 4 (≈ 13.6 µM) | 4 (≈ 13.6 µM) |  |  |  |  |  |  |  |  |  | 
CCCCC(=O)c1c(O)cc(O)cc1O | > 64 | > 64 |  |  |  |  |  |  |  |  |  | 
